A word on the solubility: it is the concentration that dissolves in the medium under given conditions. Low readings indicate little dissolved substance, high ones much dissolved substance. In general, logP refers to a log measure of how a compound divides between an organic and an aqueous phase. Lower therefore signals lower lipophilicity.

The structures appear in SMILES notation. Converted amounts (≈) assume the structure as drawn.

In turn, `COP(=S)(OC)Oc1cc(Cl)c(Br)cc1Cl` registered a solubility (20 °C) of 0.82 µM (≈ 0.3 µg/mL). On the same count and under the same terms, the value for `CCOP(=S)(OCC)SCS(=O)C(C)(C)C` (stereo not given) was 3610 µM (≈ 1100 µg/mL); that for `CCOP(=S)(OCC)SCCS(=O)(=O)CC` was 2880 µM (≈ 883 µg/mL). `CCOP(=S)(OCC)SCS(=O)(=O)CC` yielded a logP of 1.99. The solubility (20 °C) was determined as 2950 µM (≈ 861 µg/mL).

Where the note is “20 °C”, `CCOP(=S)(OCC)Oc1ccc(S(C)(=O)=O)cc1` had a solubility of 2300 µM (≈ 746 µg/mL). Still for that read-out and setting: the value for `CCOP(=S)(OCC)SCS(=O)CC` (stereo not given) was 28900 µM (≈ 8000 µg/mL).

In turn, `CCOP(=S)(OCC)SCCSCC` came in with a solubility (20 °C) of 59.4 µM (≈ 16.3 µg/mL). Turning to `CNC(=O)ON=CC(C)(C)SC`, the solubility (25 °C) was found to be 31700 µM (≈ 6030 µg/mL). As to `CCOP(=O)(OCC)Oc1ccc([N+](=O)[O-])cc1`, the solubility (20 °C) worked out at 8720 µM (≈ 2400 µg/mL).

For the origin of these results see the OPERA property sets (Mansouri et al. 2018).
